From the supplement of paper PMC10307832

Assays:
Assay in all cases: relative viability (nuclei count vs DMSO), 5 days (fraction); higher = more cells survive
201T = test system: 201T
Outline: (§1)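 Dosing by pin tool came one day after lung cancer cell lines were seeded in 1536-well plates, using either one drug or a fixed anchor-drug dose plus five library-drug doses (not always all listed) in √10 steps. After 5 days, nuclei were counted on 4× images. Relative viability is treated-well nuclei count divided by vehicle-well nuclei count, and values are medians of duplicate plates.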

ABC-1 = test system: ABC-1
Outline: as §1

BEN = test system: BEN
Outline: as §1

CAL-12T = test system: CAL-12T
Outline: as §1

COR-L 105 = test system: COR-L 105
Outline: as §1

COR-L23 = test system: COR-L23
Outline: as §1

EKVX = test system: EKVX
Outline: as §1

HARA = test system: HARA
Outline: as §1

HCC-366 = test system: HCC-366
Outline: as §1

LU99A = test system: LU99A
Outline: as §1

NCI-H1437 = test system: NCI-H1437
Outline: as §1

NCI-H1650 = test system: NCI-H1650
Outline: as §1

NCI-H1666 = test system: NCI-H1666
Outline: as §1

NCI-H2009 = test system: NCI-H2009
Outline: as §1

NCI-H3122 = test system: NCI-H3122
Outline: as §1

NCI-H441 = test system: NCI-H441
Outline: as §1

NCI-H661 = test system: NCI-H661
Outline: as §1

NCI-H727 = test system: NCI-H727
Outline: as §1

NCI-H838 = test system: NCI-H838
Outline: as §1

PC-14 = test system: PC-14
Outline: as §1

CC1(C)CCC(c2ccc(Cl)cc2)=C(CN2CCN(c3ccc(C(=O)NS(=O)(=O)c4ccc(N[C@H](CCN5CCOCC5)CSc5ccccc5)c(S(=O)(=O)C(F)(F)F)c4)cc3)CC2)C1 [Navitoclax] + CC(C)C[C@H](NC(=O)[C@H](Cc1ccccc1)NC(=O)c1cnccn1)B(O)O [Bortezomib] (partner 0.002 µM)
relative viability (201T; first compound 0.005 µM): 1.16 | relative viability (201T; first compound 0.01581 µM): 1.13 | relative viability (201T; first compound 0.05 µM): 1 | relative viability (201T; first compound 0.1581 µM): 1.1 | relative viability (201T; first compound 0.5 µM): 1.1 | relative viability (ABC-1; first compound 0.005 µM): 0.28 | relative viability (ABC-1; first compound 0.01581 µM): 0.286 | relative viability (ABC-1; first compound 0.05 µM): 0.265 | relative viability (ABC-1; first compound 0.1581 µM): 0.254 | relative viability (ABC-1; first compound 0.5 µM): 0.216 | relative viability (BEN; first compound 0.005 µM): 0.826 | relative viability (BEN; first compound 0.01581 µM): 0.807 | relative viability (BEN; first compound 0.05 µM): 0.664 | relative viability (BEN; first compound 0.1581 µM): 0.789 | relative viability (BEN; first compound 0.5 µM): 0.339 | relative viability (CAL-12T; first compound 0.005 µM): 0.887 | relative viability (CAL-12T; first compound 0.01581 µM): 0.711 | relative viability (CAL-12T; first compound 0.05 µM): 0.989 | relative viability (CAL-12T; first compound 0.1581 µM): 0.853 | relative viability (CAL-12T; first compound 0.5 µM): 0.941 | relative viability (COR-L 105; first compound 0.005 µM): 0.977 | relative viability (COR-L 105; first compound 0.01581 µM): 1.31 | relative viability (COR-L 105; first compound 0.05 µM): 0.712 | relative viability (COR-L 105; first compound 0.1581 µM): 0.875 | relative viability (COR-L 105; first compound 0.5 µM): 0.584 | relative viability (COR-L23; first compound 0.005 µM): 0.964 | relative viability (COR-L23; first compound 0.01581 µM): 1.03 | relative viability (COR-L23; first compound 0.05 µM): 1.15 | relative viability (COR-L23; first compound 0.1581 µM): 0.929 | relative viability (COR-L23; first compound 0.5 µM): 0.975 | relative viability (EKVX; first compound 0.005 µM): 1.01 | relative viability (EKVX; first compound 0.01581 µM): 1.01 | relative viability (EKVX; first compound 0.05 µM): 0.68 | relative viability (EKVX; first compound 0.1581 µM): 1.04 | relative viability (EKVX; first compound 0.5 µM): 0.963 | relative viability (HARA; first compound 0.005 µM): 1.04 | relative viability (HARA; first compound 0.01581 µM): 1.11 | relative viability (HARA; first compound 0.05 µM): 0.643 | relative viability (HARA; first compound 0.1581 µM): 1.08 | relative viability (HARA; first compound 0.5 µM): 1.18 | relative viability (HCC-366; first compound 0.005 µM): 1 | relative viability (HCC-366; first compound 0.01581 µM): 1.06 | relative viability (HCC-366; first compound 0.05 µM): 0.539 | relative viability (HCC-366; first compound 0.1581 µM): 0.974 | relative viability (HCC-366; first compound 0.5 µM): 1.04 | relative viability (LU99A; first compound 0.005 µM): 1.08 | relative viability (LU99A; first compound 0.01581 µM): 1.29 | relative viability (LU99A; first compound 0.05 µM): 0.857 | relative viability (LU99A; first compound 0.1581 µM): 1.15 | relative viability (LU99A; first compound 0.5 µM): 1.32 | relative viability (NCI-H1437; first compound 0.005 µM): 0.503 | relative viability (NCI-H1437; first compound 0.01581 µM): 0.589 | relative viability (NCI-H1437; first compound 0.05 µM): 0.589 | relative viability (NCI-H1437; first compound 0.1581 µM): 0.495 | relative viability (NCI-H1437; first compound 0.5 µM): 0.47 | relative viability (NCI-H1650; first compound 0.005 µM): 0.183 | relative viability (NCI-H1650; first compound 0.01581 µM): 0.213 | relative viability (NCI-H1650; first compound 0.05 µM): 0.165 | relative viability (NCI-H1650; first compound 0.1581 µM): 0.191 | relative viability (NCI-H1650; first compound 0.5 µM): 0.163 | relative viability (NCI-H1666; first compound 0.005 µM): 0.791 | relative viability (NCI-H1666; first compound 0.01581 µM): 0.825 | relative viability (NCI-H1666; first compound 0.05 µM): 0.764 | relative viability (NCI-H1666; first compound 0.1581 µM): 0.782 | relative viability (NCI-H1666; first compound 0.5 µM): 0.805 | relative viability (NCI-H2009; first compound 0.005 µM): 0.958 | relative viability (NCI-H2009; first compound 0.01581 µM): 1.19 | relative viability (NCI-H2009; first compound 0.05 µM): 0.953 | relative viability (NCI-H2009; first compound 0.1581 µM): 0.979 | relative viability (NCI-H2009; first compound 0.5 µM): 1.02 | relative viability (NCI-H3122; first compound 0.005 µM): 1.04 | relative viability (NCI-H3122; first compound 0.01581 µM): 1.02 | relative viability (NCI-H3122; first compound 0.05 µM): 1.04 | relative viability (NCI-H3122; first compound 0.1581 µM): 1.03 | relative viability (NCI-H3122; first compound 0.5 µM): 1.01 | relative viability (NCI-H441; first compound 0.005 µM): 0.349 | relative viability (NCI-H441; first compound 0.01581 µM): 0.737 | relative viability (NCI-H441; first compound 0.05 µM): 0.379 | relative viability (NCI-H441; first compound 0.1581 µM): 0.424 | relative viability (NCI-H441; first compound 0.5 µM): 0.496 | relative viability (NCI-H661; first compound 0.005 µM): 0.844 | relative viability (NCI-H661; first compound 0.01581 µM): 0.873 | relative viability (NCI-H661; first compound 0.05 µM): 0.785 | relative viability (NCI-H661; first compound 0.1581 µM): 0.827 | relative viability (NCI-H661; first compound 0.5 µM): 0.668 | relative viability (NCI-H727; first compound 0.005 µM): 0.898 | relative viability (NCI-H727; first compound 0.01581 µM): 0.888 | relative viability (NCI-H727; first compound 0.1581 µM): 1.05 | relative viability (NCI-H727; first compound 0.5 µM): 0.767 | relative viability (NCI-H838; first compound 0.005 µM): 0.65 | relative viability (NCI-H838; first compound 0.01581 µM): 1.19 | relative viability (NCI-H838; first compound 0.05 µM): 1.17 | relative viability (NCI-H838; first compound 0.1581 µM): 0.75 | relative viability (NCI-H838; first compound 0.5 µM): 0.81 | relative viability (PC-14; first compound 0.005 µM): 0.876 | relative viability (PC-14; first compound 0.01581 µM): 1 | relative viability (PC-14; first compound 0.05 µM): 0.934 | relative viability (PC-14; first compound 0.1581 µM): 0.865 | relative viability (PC-14; first compound 0.5 µM): 0.86
